# ± gives the expanded uncertainty stated by the source.
# Columns and labels:
# [1] = for mass density / viscosity: 100.9 kPa, Liquid; for mass density: Vibrating tube method; for viscosity: Cone and plate viscometry; for Glass transition temperature / Triple point temperature: DSC; for Triple point temperature: Crystal
# [2] = Molar enthalpy of transition or fusion; conditions: Crystal; DSC
Compound,mass density ([1]; 293.15 K),viscosity ([1]; 293.2 K),mass density ([1]; 298.15 K),viscosity ([1]; 298.2 K),mass density ([1]; 303.15 K),viscosity ([1]; 303.2 K),mass density ([1]; 313.15 K),viscosity ([1]; 313.2 K),mass density ([1]; 323.15 K),viscosity ([1]; 323.2 K),mass density ([1]; 333.15 K),viscosity ([1]; 333.2 K),mass density ([1]; 343.15 K),viscosity ([1]; 343.2 K),mass density ([1]; 353.15 K),viscosity ([1]; 353.2 K),Glass transition temperature [1],Triple point temperature [1],Molar enthalpy of transition or fusion [2]
CC(C)n1cc[n+](C)c1.O=S(=O)([N-]S(=O)(=O)C(F)(F)C(F)(F)F)C(F)(F)C(F)(F)F,1556.7 ± 2 kg/m3,172.6 ± 14 mPa·s,1551.3 ± 2 kg/m3,121.4 ± 10 mPa·s,1546 ± 2 kg/m3,91.7 ± 7.5 mPa·s,1535.5 ± 2 kg/m3,53 ± 4.3 mPa·s,1524.6 ± 2 kg/m3,38 ± 3.1 mPa·s,1514 ± 2 kg/m3,26.4 ± 2.1 mPa·s,1503.5 ± 2 kg/m3,19.1 ± 1.5 mPa·s,1492.8 ± 2 kg/m3,14.4 ± 1.2 mPa·s,-75.7 ± 1.8 °C,–,–
C[n+]1ccn(C(C)(C)C)c1.O=S(=O)([N-]S(=O)(=O)C(F)(F)F)C(F)(F)F,1451.5 ± 2 kg/m3,167.3 ± 14 mPa·s,1446.6 ± 2 kg/m3,121.4 ± 10 mPa·s,1442 ± 2 kg/m3,91.5 ± 7.4 mPa·s,1432.8 ± 2 kg/m3,55.6 ± 4.5 mPa·s,1423.1 ± 2 kg/m3,37.5 ± 3 mPa·s,1413.8 ± 2 kg/m3,26.2 ± 2.1 mPa·s,1404.5 ± 2 kg/m3,19 ± 1.5 mPa·s,1395 ± 2 kg/m3,14.5 ± 1.2 mPa·s,–,280.4 ± 1.8 K,5.47 ± 0.167 kcal/mol
CC(C)[n+]1ccn(C)c1.[I-] [1-methyl-3-(1-methylethyl)imidazolium iodide],–,–,–,–,–,–,–,–,–,–,–,–,–,–,–,–,–,383.4 ± 1.8 K,3.9 ± 0.12 kcal/mol
C[n+]1ccn(C(C)(C)C)c1.[I-] [1-tert-butyl-3-methylimidazolium iodide],–,–,–,–,–,–,–,–,–,–,–,–,–,–,–,–,–,432.7 ± 1.8 K,3.63 ± 0.12 kcal/mol
CC(C)[n+]1ccn(C)c1.O=S(=O)([N-]S(=O)(=O)C(F)(F)F)C(F)(F)F,1481.9 ± 2 kg/m3,58.3 ± 4.7 mPa·s,1476.8 ± 2 kg/m3,45.5 ± 3.7 mPa·s,1472 ± 2 kg/m3,36.9 ± 3 mPa·s,1462.5 ± 2 kg/m3,24.5 ± 2 mPa·s,1452.4 ± 2 kg/m3,19.3 ± 1.6 mPa·s,1442.9 ± 2 kg/m3,14.5 ± 1.2 mPa·s,1433.4 ± 2 kg/m3,11.2 ± 0.9 mPa·s,1423.7 ± 2 kg/m3,8.9 ± 0.7 mPa·s,–,283.5 ± 1.8 K,5.78 ± 0.167 kcal/mol
CC(C)[n+]1ccn(C)c1.F[P-](F)(F)(F)(F)F [1-methyl-3-(1-methylethyl)imidazolium hexafluorophosphate],–,–,–,–,–,–,–,–,–,–,–,–,–,–,–,–,–,374 ± 1.8 K,3.75 ± 0.12 kcal/mol
C[n+]1ccn(C(C)(C)C)c1.F[P-](F)(F)(F)(F)F [1-tert-butyl-3-methylimidazolium hexafluorophosphate],–,–,–,–,–,–,–,–,–,–,–,–,–,–,–,–,–,421 ± 1.8 K,5.52 ± 0.167 kcal/mol
C[n+]1ccn(C(C)(C)C)c1.O=S(=O)([N-]S(=O)(=O)C(F)(F)C(F)(F)F)C(F)(F)C(F)(F)F,1530.8 ± 2 kg/m3,571.1 ± 53 mPa·s,1525.2 ± 2 kg/m3,367.2 ± 33 mPa·s,1519.9 ± 2 kg/m3,246.7 ± 21 mPa·s,1509.6 ± 2 kg/m3,126.1 ± 10 mPa·s,1498.9 ± 2 kg/m3,80.9 ± 6.6 mPa·s,1488.6 ± 2 kg/m3,50.7 ± 4.1 mPa·s,1478.4 ± 2 kg/m3,33.9 ± 2.7 mPa·s,1467.8 ± 2 kg/m3,23.8 ± 1.9 mPa·s,-58.0 ± 1.8 °C,294.3 ± 1.8 K,3.99 ± 0.12 kcal/mol

# — the NIST ThermoML archive (doi:10.1021/acs.jced.9b00776)
